In patent publication US8124766B2, “Inhibitors of diacylglycerol acyltransferase” (Madrigal Pharmaceuticals, Inc., priority 2008, dated 2012):
Counter-ions that a name gives are not always drawn.

System: DGAT
Assay: DGAT Phospholipid FlashPlate Assay
Assay type: biochemical
Settings: DGAT pellet, DAG-coated PL-FlashPlate, 14C-Pal-CoA, 37° C. for 1 hour; read-out: DGAT Inhibition Activity IC50
How it was run: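 DGAT membrane pellet (0.13 mg protein/ml diluted stock) reacted 1 h at 37 °C with 14C-palmitoyl-CoA (8.3 μM diluted stock) on FlashPlates coated with 500 μM DAG, in Tris-HCl pH 7.5, 100 mM NaCl. Scintillation counts converted to % inhibition; IC50 by 4-parameter logistic fit.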

Structure (SMILES) | IC50
CCOC(=O)N1CC[C@H](Nc2ccc(NC(=O)c3cc4c(OC)c(OC)ccc4n3CC)cn2)C1 [Example 54, (S)-3-{5-[(1-Ethyl-4,5-dimethoxy-1H-indole-2-carbonyl)-amino]-pyridin-2-ylamino}pyrrolidine-1-carboxylic acid ethyl ester hydrochloride] | 309 nM
CCOC(=O)N1CC[C@H](Nc2ccc(NC(=O)c3cc4c(OCC)cccc4n3CC)cn2)C1 [Example 55, (S)-3-{5-[(4-Ethoxy-1-ethyl-1H-indole-2-carbonyl)-amino]-pyridin-2-ylamino}-pyrrolidine-1-carboxylic acid ethyl ester hydrochloride] | 414 nM
CCOC(=O)N1CC[C@H](Nc2ccc(NC(=O)c3cc4cc(Cl)ccc4n3CC)cn2)C1 [Example 56, (S)-3-{5-[(5-Chloro-1-ethyl-1H-indole-2-carbonyl)-amino]-pyridin-2-ylamino}-pyrrolidine-1-carboxylic acid ethyl ester] | 671 nM
CCOC(=O)N1CC[C@H](Nc2ccc(NC(=O)c3cc4c(Cl)c(Cl)ccc4n3CC)cn2)C1 [Example 57, (S)-3-{5-[(4,5-Dichloro-1-ethyl-1H-indole-2-carbonyl)-amino]-pyridin-2-ylamino}-pyrrolidine-1-carboxylic acid ethyl ester hydrochloride] | 548 nM
CCn1c(C(=O)Nc2ccc(N3CCN(C(=O)OC(C)(C)C)CC3)cc2)cc2c(Cl)c(Cl)ccc21 [Example 59, 4-{4-[(4,5-Dichloro-1-ethyl-1H-indole-2-carbonyl)-amino]-phenyl}-piperazine-1-carboxylic acid tert-butyl ester] | 821 nM
CCn1c(C(=O)Nc2ccc(C3CCN(C(=O)CC(C(=O)O)c4ccccc4)CC3)cc2)cc2c(Cl)c(Cl)ccc21 (stereo not drawn) [Example 61, 4-(4-{4-[(4,5-Dichloro-1-ethyl-1H-indole-2-carbonyl)-amino]-phenyl}-piperidin-1-yl)-4-oxo-2-phenyl-butyric acid] | 790 nM
CCn1c(C(=O)Nc2ccc(N3CCN(C(=O)CC(C(=O)O)C4CCCCC4)CC3)cc2)cc2c(Cl)c(Cl)ccc21 (stereo not drawn) [Example 63, 2-Cyclohexyl-4-(4-{4-[(4,5-dichloro-1-ethyl-1H-indole-2-carbonyl)-amino]-phenyl}-piperazin-1-yl)-4-oxo-butyric acid hydrochloride] | 351 nM
CCOc1cccc2c1cc(C(=O)Nc1ccc(O[C@H]3CCN(C(=O)OC(C)(C)C)C3)cc1)n2CC [Example 65, (S)-3-{4-[(4-Ethoxy-1-ethyl-1H-indole-2-carbonyl)-amino]-phenoxy}-pyrrolidine-1-carboxylic acid tert-butyl ester] | 701 nM
CCn1c(C(=O)Nc2ccc(N3CCN(c4ccc(C(=O)O)cc4)CC3)cc2)cc2c(Cl)c(Cl)ccc21 [Example 70, 4-(4-{4-[(4,5-Dichloro-1-ethyl-1H-indole-2-carbonyl)-amino]-phenyl}-piperazin-1-yl)-benzoic acid] | 319 nM
COc1cccc2c(C)c(C(=O)Nc3ccc(N4CCN(C(=O)[C@H]5CCC[C@@H]5C(=O)O)CC4)cc3)[nH]c12 [Example 75, (1S,2S)-2-(4-{4-[(7-Methoxy-3-methyl-1H-indole-2-carbonyl)-amino]-phenyl}-piperazine-1-carbonyl)-cyclopentanecarboxylic acid] | 372 nM
CCOc1ccc2c(C)c(C(=O)Nc3ccc(N4CCN(C(=O)OC(C)(C)C)CC4)cc3)oc2c1OCC [Example 78, 4-{4-[(6,7-Diethoxy-3-methyl-benzofuran-2-carbonyl)-amino]-phenyl}-piperazine-1-carboxylic acid tert-butyl ester] | 848 nM
COCc1c(C(=O)Nc2ccc(N3CCN(C(=O)OC(C)(C)C)CC3)cc2)oc2ccccc12 [Example 79, 4-{4-[(3-Methoxymethyl-benzofuran-2-carbonyl)-amino]-phenyl}-piperazine-1-carboxylic acid tert-butyl ester] | 940 nM
CCOC(=O)N1CCC(Oc2ccc(NC(=O)c3oc4c(OCC)c(OCC)ccc4c3C)cc2)C1 (stereo not drawn) [Example 80, 3-{4-[(6,7-Diethoxy-3-methyl-benzofuran-2-carbonyl)-amino]-phenoxy}-pyrrolidine-1-carboxylic acid ethyl ester] | 583 nM
CCOC(=O)N1CCC(Oc2ccc(NC(=O)c3oc4ccccc4c3COC)cc2)C1 (stereo not drawn) [Example 81, 3-{4-[(3-Methoxymethyl-benzofuran-2-carbonyl)-amino]-phenoxy}-pyrrolidine-1-carboxylic acid ethyl ester] | 720 nM
COCCN(C)c1ccc(NC(=O)c2oc3c(F)cccc3c2C)cn1 [Example 82, 7-Fluoro-3-methyl-benzofuran-2-carboxylic acid {6-[(2-methoxy-ethyl)-methyl-amino]pyridin-3-yl}-amide] | 430 nM

Stronger by IC50, values ahead:

IC50 | Structure (SMILES)
209 nM | CCOC(=O)N1CC[C@H](Nc2ccc(NC(=O)c3cc4c(C)cccc4n3CC)cn2)C1 [Example 53, (S)-3-{5-[(1-Ethyl-4-methyl-1H-indole-2-carbonyl)-amino]-pyridin-2-ylamino}-pyrrolidine-1-carboxylic acid ethyl ester hydrochloride]
247 nM | CCn1c(C(=O)Nc2ccc(N[C@H]3CCN(C(=O)NC(C)(C)C)C3)nc2)cc2c(C)cccc21 [Example 58, 1-Ethyl-4-methyl-1H-indole-2-carboxylic acid [6-((8)-1-tert-butylcarbamoyl-pyrrolidin-3-ylamino)-pyridin-3-yl]-amide hydrochloride]
210 nM | CCn1c(C(=O)Nc2ccc(N3CCN(C(=O)CC(C)(C)C(=O)O)CC3)cc2)cc2c(Cl)c(Cl)ccc21 [Example 60, 4-(4-{4-[(4,5-Dichloro-1-ethyl-1H-indole-2-carbonyl)-amino]-phenyl}-piperazin-1-yl)-2,2-dimethyl-4-oxo-butyric acid]
240 nM | CCn1c(C(=O)Nc2ccc(C3CCN(C(=O)CC4(C(=O)O)CCCC4)CC3)cc2)cc2c(Cl)c(Cl)ccc21 [Example 62, 1-[2-(4-{4-[(4,5-Dichloro-1-ethyl-1H-indole-2-carbonyl)-amino]-phenyl}-piperidin-1-yl)-2-oxo-ethyl]-cyclopentanecarboxylic acid]
164 nM | CCn1c(C(=O)Nc2ccc(N3CCN(C(=O)CC(C(=O)O)C(C)C)CC3)cc2)cc2c(Cl)c(Cl)ccc21 (stereo not drawn) [Example 64, 2-[2-(4-{4-[(4,5-Dichloro-1-ethyl-1H-indole-2-carbonyl)-amino]-phenyl}-piperazin-1-yl)-2-oxo-ethyl]-3-methyl-butyric acid]
208 nM | CCOc1cccc2c1cc(C(=O)Nc1ccc(O[C@H]3CCN(C(=O)CC(C)(C)C(=O)O)C3)cc1)n2CC [Example 66, 4-((S)-3-{4-[(4-Ethoxy-1-ethyl-1H-indole-2-carbonyl)-amino]-phenoxy}-pyrrolidin-1-yl)-2,2-dimethyl-4-oxo-butyric acid]
296 nM | CCOc1cccc2c1cc(C(=O)Nc1ccc(O[C@H]3CCN(c4ccc(C(=O)O)cc4)C3)cc1)n2CC [Example 67]
289 nM | CCOc1cccc2c1cc(C(=O)Nc1ccc(N3CCN(C(=O)CC4SC(=O)NC4=O)CC3)cc1)n2CC (stereo not drawn) [Example 68, 4-Ethoxy-1-ethyl-1H-indole-2-carboxylic acid (4-{4-[2-(2,4-dioxo-thiazolidin-5-yl)-acetyl]-piperazin-1-yl}-phenyl)-amide hydrochloride]
236 nM | CCn1c(C(=O)Nc2ccc(N3CCN(C(=O)CC4SC(=O)NC4=O)CC3)cc2)cc2c(Cl)c(Cl)ccc21 (stereo not drawn) [Example 69, 4,5-Dichloro-1-ethyl-1H-indole-2-carboxylic acid (4-{4-[2-(2,4-dioxo-thiazolidin-5-yl)-acetyl]-piperazin-1-yl}-phenyl)-amide]
188 nM | COc1cccc2c(C)c(C(=O)Nc3ccc(N4CCN(C(=O)OC(C)(C)C)CC4)cc3)[nH]c12 [Example 71, 4-{4-[(7-Methoxy-3-methyl-1H-indole-2-carbonyl)-amino]-phenyl}-piperazine-1-carboxylic acid tert-butyl ester]
117 nM | COCCN(C)c1ccc(NC(=O)c2[nH]c3c(OC)cccc3c2C)cn1 [Example 72, 7-Methoxy-3-methyl-1H-indole-2-carboxylic acid {6-[(2-methoxy-ethyl)-methyl-amino]pyridin-3-yl}-amide]
90 nM | CCOC(=O)N1CCC(Oc2ccc(NC(=O)c3[nH]c4c(OC)cccc4c3C)cc2)C1 (stereo not drawn) [Example 73, 3-{4-[(7-Methoxy-3-methyl-1H-indole-2-carbonyl)-amino]-phenoxy}-pyrrolidine-1-carboxylic acid ethyl ester]
64 nM | COc1cccc2c(C)c(C(=O)Nc3ccc(N4CCN(C(=O)CC(C)(C)C(=O)O)CC4)cc3)[nH]c12 [Example 74, 4-(4-{4-[(7-Methoxy-3-methyl-1H-indole-2-carbonyl)-amino]-phenyl}-piperazin-1-yl)-2,2-dimethyl-4-oxo-butyric acid]
58 nM | COc1cccc2c(C)c(C(=O)Nc3ccc(N4CCN(C(=O)[C@H]5CC[C@H](C(=O)O)CC5)CC4)cc3)[nH]c12 [Example 76, trans-4-(4-{4-[(7-Methoxy-3-methyl-1H-indole-2-carbonyl)-amino]-phenyl}-piperazine-1-carbonyl)-cyclohexanecarboxylic acid]
57 nM | COc1cccc2c(C)c(C(=O)Nc3ccc(C4CCN(C(=O)[C@H]5CC[C@H](C(=O)O)CC5)CC4)cc3)[nH]c12 [Example 77, trans-4-(4-{4-[(7-Methoxy-3-methyl-1H-indole-2-carbonyl)-amino]phenyl}-piperidine-1-carbonyl)-cyclohexanecarboxylic acid]
